Test results published in publication PMC12303080, “Diverse actions of 15 structurally unrelated mitochondrial uncouplers in cells and mice” (Molecular Metabolism, 2025).
Read-outs that look alike come from different tables or passages of the source. One block for each molecule: values may come before it.

Legend:
[1] = test system: CHO–K1 cells; assay: Seahorse XF-96 OCR dose response of 15 uncouplers (Figure 2); type: cell-based, Cricetulus griseus; settings: CHO–K1; for MaxOCR: 0.32–200 μM, first 24 min post injection; for EC50: mean OCR (% basal) over first 24 min post injection, ± standard error, four-parameter fit, read-out: EC50 (increase of OCR); for MaxOCR lower than that seen with BAM15: Figure 2; for Concentration range with sustained enhanced OCR (OCR ≥ 150% basal): tested 0.32–200 μM
Procedure: (§1) Stock solutions of the uncouplers and/or Rotenone/Antimycin A were diluted in Seahorse media to give the final concentration indicated in Figure 1, Figure 2, Figure 3 with 0.4% (v/v) DMSO in wells.

[2] = test system: CHO–K1 cells; assay: OCR in the absence or presence of oligomycin (Supplementary Fig. 6); type: cell-based, Cricetulus griseus; settings: 1 μM oligomycin; for Effect of oligomycin on uncoupler-stimulated OCR: uncoupler at lowest concentration yielding MaxOCR
Procedure: ATP synthase is the major conduit through which protons re-enter the mitochondrial matrix. Thus, we sought to investigate whether the selected uncouplers could stimulate oxygen consumption in the presence of the ATP synthase inhibitor oligomycin.
Supplementary Figure 6. […] At ~24 minutes, 1 μM of oligomycin or vehicle was injected, followed by the injection of the indicated uncoupler or vehicle at ~44 minutes, and 0.5 μM Rotenone / Antimycin A at ~88 minutes.

[3] = test system: RAW 264.7 cells; settings: 0.5–50 μM
Procedure: as §1
(§2) The dashed line indicates basal respiration, defined as the mean OCR over the first 24 minutes of the assay. Error bars show SEM, n = 3 per condition from three separate experiments.

[4] = test system: HeLa cells; settings: 0.5–50 μM
Procedure: as §1, §2

[5] = test system: CHO–K1 cells; settings: 0.5–50 μM, BAM15 at 5 μM, FCCP at 1 μM
Procedure: as §1

[6] = test system: HEK-293T cells; settings: HEK293T; 0.5–50 μM
Procedure: as §1, §2

[7] = test system: db/db mice; assay: Four-week treatment by admixture in chow, metabolic phenotyping; settings: 4 weeks; for Body weight / weight gain vs db/db controls: 0.15% BAM15, 0.02% OPC-163493, 0.015% and 0.03% ES9, NTZ and NEN both doses; for Body weight, food intake, or metabolic tissue weights vs control: 0.25% NEN, 0.2% NTZ, 0.01% and 0.02% OPC-163493; for Blood glucose, HbA1c, glucose tolerance vs control / Overall metabolic phenotype vs db/db control (Figure 8, words): NEN both doses; for Blood glucose, HbA1c, glucose tolerance vs control: 0.01% OPC, 0.015% ES9, 0.2% NTZ; for Overall metabolic phenotype vs db/db control (Figure 8, words): OPC-163493 both doses, NTZ 0.2%; for Liver mass vs db/db control: both doses of BAM15, low dose NEN; for Daily food intake: both doses of BAM15, low dose of NEN, high dose of NTZ
Procedure: Body weight and glucose tolerance of male db/+ and db/db mice was assessed at 8–9 weeks of age to obtain baseline measurements. Db/+ were used as lean metabolically healthy controls and given ad libitum access to chow diet. Db/db mice were stratified into 12 groups using R (V4.4.0).
Mice were on treatment for a period of four weeks, during which body weight and food intake were measured daily. […] To counter this, food traps were placed beneath hoppers and leftover food in both the traps and hoppers was weighed daily. HbA1c was measured weekly. At the end of the treatment period, a glucose tolerance test was conducted, with fed and fasted bloods collected. At termination, blood was collected via cardiac puncture under isoflurane anaesthesia. Mice were euthanised by cervical dislocation and harvested tissues were flash-frozen in liquid nitrogen and stored at −80 °C.
Mice were fasted for 6 h and then received intraperitoneal injections of 20% (w/v) dextrose at a dose of 1 g/kg lean body mass. Blood glucose (BG) was measured at the time of fasting (random-fed BG) and then again prior to the commencement of the GTT following the 6-hour daytime fast (fasted BG). […] The rate of glucose clearance was measured using the trapezoidal method for calculation of area under the curve.
HbA1c was measured once weekly using an A1cNow + Portable HbA1c Test Kit. […] HbA1c was measured in the random-fed state.
A glucose tolerance test was conducted at the end of the treatment period, with random fed and 6-hour fasted bloods collected. Blood was collected in heparin tubes and kept on ice prior to centrifugation at 2000×g for 10 min at 4 °C to extract plasma. Plasma insulin concentration was determined using the Crystal Chem Ultra-Sensitive Mouse Insulin ELISA kit, according to manufacturers' instructions for the high range (1–64 ng/mL) assay.

[8] = test system: CDAA/c mouse model of NASH; design: method as in earlier work; settings: cited from earlier work
[9] = test system: rats; design: method as in PMID 3889119; settings: cited from earlier work
[10] = test system: SARS-CoV-2; design: method as in PMID 35237748; settings: two 300 mg extended release tablets; placebo […]; cited from earlier work
[11] = test system: rats; assay: NTZ toxicology study in rats (literature); type: in vivo; settings: worked out from rat dose
[12] = test system: Zucker diabetic fatty rats, Akita mice, and Otsuka Long-Evans Tokushima Fatty rats; design: method as in PMID 31092829; settings: decreased HbA1c and lowered fasting blood glucose; cited from earlier work
[13] = Drug exposure / pharmacokinetics after oral gavage; settings: male, C57BL/6J, mouse, plasma, 10 mg/kg
[14] = Terminal plasma drug concentration by LC-MS/MS; type: in vivo; settings: db/db mice, study endpoint; TIZ row: mice fed 0.2% NTZ
Procedure: LC-MS/MS was performed using a Shimadzu Prominence LCMS-8030 as previously described.
Figure 7 Plasma drug concentration and markers of tissue damage in db/db mice at study endpoint. Plasma was collected via cardiac puncture at time of euthanasia. A–E) Terminal plasma drug concentration was measured by LC-MS/MS. F–I) Terminal plasma concentration of liver function indicators (ALT, AST and GLDH) and kidney function indicator (urea). Graphs show mean ± SEM, n = 6–9 per group for plasma drug concentration measurement. Due to the limited volume of samples, not all liver and kidney function tests could be performed for all mice.

[15] = test system: isolated rat hepatocytes; design: method as in PMID 12150871, PMID 31297293; settings: read-out: EC50, inhibiting oxygen consumption; cited from earlier work
[16] = test system: rat hepatocytes; design: method as in PMID 15037196, PMID 8726330; settings: cited from earlier work
[17] = in vivo; cited from earlier work
[18] = Cricetulus griseus, CHO-K1, 0.4 h

Molecule: CCCCCCCCCCCC[P+](c1ccccc1)(c1ccccc1)c1ccccc1 [C12TPP, Dodecyl-triphenylphosphonium]
Concentration giving max efficacy / MaxOCR [1]: 3.16 µM | MaxOCR [1]: ~178 % of basal | OCR at higher doses ([1]; doses above 3.16 μM): ~18 % of baseline | EC50 ([1]; Cricetulus griseus, 0.4 h): 1020 ± 980 nM | Higher OCR in the presence of oligomycin ([2]; initially): ~60% | Effect of oligomycin on uncoupler-stimulated OCR [2]: largely unaffected by the presence of oligomycin

Molecule: Cc1c2ccncc2c(C)c2c1[nH]c1ccccc12 [ELL, Ellipticine]
Concentration at which OCR increased above basal levels [1]: > 100 µM | MaxOCR [1]: ~122 % of basal

Molecule: N#CC(C#N)=NNc1ccc(OC(F)(F)F)cc1 [FCCP, Carbonyl cyanide p-trifluoromethoxyphenylhydrazone]
Stimulation of OCR [3]: failed to stimulate OCR above basal levels | Stimulation of OCR [4]: failed to stimulate OCR above basal levels | MaxOCR [1]: 260 % of basal | EC50 [1, 18]: 310 nM | MaxOCR [5]: ~260 % basal | Effect of oligomycin on uncoupler-stimulated OCR [2]: largely unaffected by the presence of oligomycin | Stimulation of OCR [6]: failed to stimulate OCR above basal levels

Molecule: O=C(Nc1ccc([N+](=O)[O-])cc1Cl)c1cc(Cl)ccc1O [NEN, Niclosamide ethanolamine]
MaxOCR lower than that seen with BAM15 [1]: ~25% | Concentration range with sustained enhanced OCR (OCR ≥ 150% basal) [1]: 0.32 µM | EC50 [1, 18]: 90 nM | Body weight / weight gain vs db/db controls [7]: little impact on body weight | Body weight, food intake, or metabolic tissue weights vs control [7]: not significantly different | Blood glucose, HbA1c, glucose tolerance vs control [7]: did not have significantly lower random-fed or 6-hour fasted blood glucose | Overall metabolic phenotype vs db/db control (Figure 8, words) [7]: no significant changes compared to the db/db control except lower liver weight | Liver mass vs db/db control ([7]; high dose NTZ): statistically decreased liver mass | Daily food intake [7]: restored normal food intake | Effect of oligomycin on uncoupler-stimulated OCR [2]: largely unaffected by the presence of oligomycin

Molecule: CC(=O)Oc1ccccc1C(=O)Nc1ncc([N+](=O)[O-])s1 [NTZ, Nitazoxanide]
Decrease in liver fibrosis ([8]; 100 mg/kg/day): 32% | Decrease in liver fibrosis ([8]; co-administered with Elafibranor): 60% | Doses with increased salivation and lethargy, increased liver and spleen size [9]: ≥ 450 mg/kg/day | EC50 [1, 18]: 2320 ± 460 nM | Body weight / weight gain vs db/db controls [7]: little impact on body weight | Body weight, food intake, or metabolic tissue weights vs control [7]: not significantly different | Gonadal fat less than control group ([7]; 0.4% in chow): 26% | Post-treatment GTT AUC lower than control group ([7]; 0.4% in chow): ~29% | Blood glucose, HbA1c, glucose tolerance vs control [7]: did not have significantly lower random-fed or 6-hour fasted blood glucose | Overall metabolic phenotype vs db/db control (Figure 8, words) [7]: no statistically significant phenotype | Liver mass vs db/db control ([7]; high dose NTZ): statistically decreased liver mass | Daily food intake [7]: restored normal food intake | HbA1c ([7]; both doses of BAM15, printed 0.3% ES9, 0.4% NTZ): lowered HbA1c levels | Fasting and random fed blood glucose ([7]; either dose of BAM15, high dose ES9, high dose NTZ): partial efficacy | Increase of liver cholesterol concentration vs db/db control ([7]; high dose NTZ (0.4%)): ~1.7 fold | Increase of liver cholesterol concentration vs db/db control ([7]; low dose NTZ (0.2%)): ~1.5 fold | Patients progressed to severe disease [10]: 0.5% | Mouse equivalent dose of the rat adverse effect dose [11]: ~900 mg/kg/day

Cmax [13]: 30.9 µM
Molecule: Cc1sc(-c2ccc(C(F)(F)F)cc2)nc1-c1nn[nH]c1C#N [OPC-163493, 4-(5-methyl-2-(4-(trifluoromethyl)phenyl)thiazol-4-yl)-1H-1,2,3-triazole-5-carbonitrile]
Doses with significant anti-diabetic effects (as low as) [12]: ≥ 2 mg/kg/day | Concentration giving max efficacy / MaxOCR [1]: 10 µM | MaxOCR lower than that seen with BAM15 [1]: ~22% | EC50 [1]: 1000 nM | EC50 [1, 18]: 1010 ± 1200 nM | Body weight / weight gain vs db/db controls [7]: non-significant trend for lower body weight | Body weight, food intake, or metabolic tissue weights vs control [7]: not significantly different | Blood glucose, HbA1c, glucose tolerance vs control [7]: did not have significantly lower random-fed or 6-hour fasted blood glucose | Overall metabolic phenotype vs db/db control (Figure 8, words) [7]: No statistically significant changes | Effect of oligomycin on uncoupler-stimulated OCR [2]: largely unaffected by the presence of oligomycin

Molecule: COc1cc(C(=O)OCC=C(C)C)nc2c(OCC=C(C)C)cccc12 [Ppc-1, Polysphondylium pseudo-candidum-1]
OCR at 31.6 μM [1]: ~130 % basal | Concentration inducing decline in OCR to sub-basal levels ([1]; after ∼40 min of treatment): over 31.6 μM | EC50 [1, 18]: 13500 ± 7140 nM

Molecule: O=C(Nc1cc(Cl)cc(Cl)c1)Nc1cc(Cl)cc(Cl)c1 [SR4, 1,3-bis(3,5-dichlorophenyl)urea]
Concentration at which OCR increased above basal levels [1]: 200 µM | MaxOCR [1]: ~117 % of basal

Molecule: CNC(=O)c1cc(Oc2ccc(NC(=O)Nc3ccc(Cl)c(C(F)(F)F)c3)cc2)ccn1 [Sorafenib, 4-[4-({[4-chloro-3 (trifluoromethyl)phenyl]carbamoyl}amino)phenoxy]-N-methylpyridine-2-carboxamide]
Uncoupling activity ([1]; tested concentration range, 120-minute assay): did not have any uncoupling activity

Molecule: O=C(Nc1ncc([N+](=O)[O-])s1)c1ccccc1O [TIZ, tizoxanide]
Terminal plasma drug concentration vs in vitro uncoupling range [14]: lower than the concentration at which oxygen consumption rate was enhanced in vitro

Molecule: FC(F)(F)c1nc2c(Cl)c(Cl)c(Cl)c(Cl)c2[nH]1 [TTFB, 4,5,6,7-Tetrachloro-2-trifluoromethylbenzimidazole]
MaxOCR [1]: 280 % of basal | Concentration inducing decline in OCR to sub-basal levels ([1]; first 24 min): 200 µM | EC50 [1, 18]: 520 nM | Effect of oligomycin on uncoupler-stimulated OCR [2]: largely unaffected by the presence of oligomycin

Molecule: CC(C)(C)c1cc(C=C(C#N)C#N)cc(C(C)(C)C)c1O [TyrA9, Tyrphostin A9]
EC50 [15]: 78 µM | MaxOCR lower than that seen with BAM15 [1]: ~140% | Concentration range with sustained enhanced OCR (OCR ≥ 150% basal) [1]: ≤ 100 µM | EC50 [1, 18]: 10 nM | Effect of oligomycin on uncoupler-stimulated OCR [2]: largely unaffected by the presence of oligomycin

Molecule: CC(=O)C1=C(O)C=C2Oc3c(C(C)=O)c(O)c(C)c(O)c3[C@@]2(C)C1=O [UsAc, (+)-usnic acid]
Concentrations acutely toxic [16]: (+)-usnic acid (UsAc) • UsAc has not been tested in mouse models of metabolic disease. Concentrations of 2–5 μM UsAc are acutely toxic to rat hepatocytes [84, 85]. • UsAc is found in the unregulated weight-loss supplement LipoKinetix [86]. | OCR at 31.6 μM [1]: ~125 % basal | Concentration inducing decline in OCR to sub-basal levels ([1]; after ∼40 min of treatment): over 31.6 μM | EC50 ([1]; Cricetulus griseus, 0.4 h): 430 ± 120 nM | Effect of oligomycin on uncoupler-stimulated OCR [2]: largely unaffected by the presence of oligomycin

Molecule: liraglutide
Loss of lean mass [17]: up to 60 % of total weight lost

Molecule: semaglutide
Loss of lean mass [17]: up to 40 % of total weight lost
